Measurements taken from the CheMixHub viscosity set.
± gives the uncertainty stated by the source.

Test: xn = mol fraction of the nth substance listed

OC1CCCCC1 + C1CCCCC1
101 kPa
Settings	viscosity [mPa·s]
303.15 K, x2 = 0.05	19 ± 1
303.15 K, x2 = 0.09	15.63 ± 0.44
303.15 K, x2 = 0.14	12.83 ± 0.36
308 K, x2 = 0.1168	10.68 ± 0.074
308 K, x2 = 0.2322	7.143 ± 0.051
308 K, x2 = 0.3358	4.937 ± 0.037
308 K, x2 = 0.4443	3.51 ± 0.026
308 K, x2 = 0.5452	2.453 ± 0.019
308 K, x2 = 0.6483	1.716 ± 0.013
308 K, x2 = 0.7411	1.326 ± 0.01
308 K, x2 = 0.8311	1.049 ± 0.0083
308 K, x2 = 0.918	0.8891 ± 0.0071
323.15 K, x2 = 0.05	7.54 ± 0.22
323.15 K, x2 = 0.09	6.39 ± 0.18
323.15 K, x2 = 0.14	5.53 ± 0.16

NS(=O)(=O)O + CC(=O)N(C)C
298 K, 101.33 kPa
Settings	viscosity [mPa·s]
x1 = 0.02772	1.19 ± 0.014
x1 = 0.05584	1.637 ± 0.019
x1 = 0.08283	2.268 ± 0.027
x1 = 0.1075	3.241 ± 0.038
x1 = 0.33	1.147 ± 0.011
x1 = 0.67	1.499 ± 0.011

CCCCCCCO + CCO
viscosity [mPa·s], 101 kPa
Settings	298.15 K	308.15 K	318.15 K
x2 = 0.05	5.456 ± 0.053	4.038 ± 0.038	3.025 ± 0.028
x2 = 0.1	5.144 ± 0.049	3.82 ± 0.035	2.89 ± 0.026
x2 = 0.15	4.838 ± 0.046	3.607 ± 0.033	2.75 ± 0.025
x2 = 0.2	4.539 ± 0.043	3.4 ± 0.031	2.607 ± 0.024
x2 = 0.25	4.249 ± 0.04	3.199 ± 0.029	2.465 ± 0.022
x2 = 0.3	3.969 ± 0.037	3.005 ± 0.027	2.325 ± 0.021
x2 = 0.35	3.699 ± 0.034	2.817 ± 0.025	2.188 ± 0.019
x2 = 0.4	3.439 ± 0.031	2.636 ± 0.024	2.055 ± 0.018
x2 = 0.45	3.191 ± 0.029	2.462 ± 0.022	1.927 ± 0.017
x2 = 0.5	2.954 ± 0.027	2.294 ± 0.021	1.805 ± 0.016
x2 = 0.55	2.727 ± 0.024	2.132 ± 0.019	1.688 ± 0.015
x2 = 0.6	2.512 ± 0.022	1.977 ± 0.017	1.577 ± 0.014
x2 = 0.65	2.306 ± 0.02	1.827 ± 0.016	1.471 ± 0.013
x2 = 0.7	2.111 ± 0.019	1.682 ± 0.015	1.369 ± 0.012
x2 = 0.75	1.924 ± 0.017	1.543 ± 0.013	1.271 ± 0.011
x2 = 0.8	1.744 ± 0.015	1.408 ± 0.012	1.174 ± 0.01
x2 = 0.85	1.571 ± 0.014	1.276 ± 0.011	1.078 ± 0.0094
x2 = 0.9	1.403 ± 0.012	1.147 ± 0.0099	0.9796 ± 0.0086
x2 = 0.95	1.237 ± 0.011	1.021 ± 0.0089	0.8769 ± 0.0078

CCOC(=O)C(C)O (stereo not given) + OCCCO
101 kPa
Settings	viscosity [mPa·s]
298.15 K, x1 = 0.4996	9.585 ± 0.18
303.15 K, x1 = 0.3	14.35 ± 0.28
303.15 K, x1 = 0.8	3.405 ± 0.066
313.15 K, x1 = 0.3998	7.365 ± 0.14
318.15 K, x1 = 0.3	8.235 ± 0.16
323.15 K, x1 = 0.5997	3.235 ± 0.062

CS(C)=O + CN(C)C=O
Settings	viscosity [mPa·s]
298 K, 101.3 kPa, x1 = 0.1668	0.924 ± 0.012
298 K, 101.3 kPa, x1 = 0.3195	1.036 ± 0.014
298 K, 101.3 kPa, x1 = 0.5201	1.242 ± 0.016
298 K, 101.3 kPa, x1 = 0.6689	1.474 ± 0.019
298 K, 101.3 kPa, x1 = 0.8514	1.785 ± 0.023
298.15 K, 101 kPa, x1 = 0.1077	0.89 ± 0.02
298.15 K, 101 kPa, x1 = 0.2134	0.99 ± 0.03
298.15 K, 101 kPa, x1 = 0.4199	1.11 ± 0.03
298.15 K, 101 kPa, x1 = 0.5205	1.24 ± 0.03
298.15 K, 101 kPa, x1 = 0.6195	1.37 ± 0.04
298.15 K, 101 kPa, x1 = 0.8128	1.61 ± 0.04
298.15 K, 101 kPa, x1 = 0.9071	1.78 ± 0.05
303.15 K, 101 kPa, x2 = 0.1	1.617 ± 0.02
303.15 K, 101 kPa, x2 = 0.2	1.466 ± 0.018
303.15 K, 101 kPa, x2 = 0.3	1.331 ± 0.017
303.15 K, 101 kPa, x2 = 0.4001	1.228 ± 0.015
303.15 K, 101 kPa, x2 = 0.5002	1.109 ± 0.014
303.15 K, 101 kPa, x2 = 0.6001	1.025 ± 0.013
303.15 K, 101 kPa, x2 = 0.7001	0.952 ± 0.013
303.15 K, 101 kPa, x2 = 0.8	0.877 ± 0.012
303.15 K, 101 kPa, x2 = 0.9	0.814 ± 0.011
313.15 K, 101 kPa, x2 = 0.1	1.365 ± 0.017
313.15 K, 101 kPa, x2 = 0.2	1.248 ± 0.016
313.15 K, 101 kPa, x2 = 0.3	1.141 ± 0.015
313.15 K, 101 kPa, x2 = 0.4001	1.057 ± 0.014
313.15 K, 101 kPa, x2 = 0.5002	0.969 ± 0.013
313.15 K, 101 kPa, x2 = 0.6001	0.9 ± 0.012
313.15 K, 101 kPa, x2 = 0.7001	0.839 ± 0.012
313.15 K, 101 kPa, x2 = 0.8	0.775 ± 0.011
313.15 K, 101 kPa, x2 = 0.9	0.724 ± 0.011
318 K, 101.3 kPa, x1 = 0.159	0.7095 ± 0.026
318 K, 101.3 kPa, x1 = 0.3184	0.7948 ± 0.029
318 K, 101.3 kPa, x1 = 0.521	0.9101 ± 0.032
318 K, 101.3 kPa, x1 = 0.6667	1.032 ± 0.036
318 K, 101.3 kPa, x1 = 0.8614	1.226 ± 0.042
323.15 K, 101 kPa, x2 = 0.1	1.17 ± 0.015
323.15 K, 101 kPa, x2 = 0.2	1.075 ± 0.014
323.15 K, 101 kPa, x2 = 0.3	0.99 ± 0.013
323.15 K, 101 kPa, x2 = 0.4001	0.922 ± 0.012
323.15 K, 101 kPa, x2 = 0.5002	0.85 ± 0.012
323.15 K, 101 kPa, x2 = 0.6001	0.792 ± 0.011
323.15 K, 101 kPa, x2 = 0.7001	0.74 ± 0.011
323.15 K, 101 kPa, x2 = 0.8	0.69 ± 0.01
323.15 K, 101 kPa, x2 = 0.9	0.647 ± 0.01

CS(C)=O + CCCCO
viscosity [mPa·s]
Settings	298.15 K	303.15 K
101 kPa, x1 = 0.09862	–	1.847 ± 0.015
101 kPa, x1 = 0.1941	–	1.698 ± 0.021
101 kPa, x1 = 0.2035	–	1.685 ± 0.014
101 kPa, x1 = 0.3043	–	1.581 ± 0.013
101 kPa, x1 = 0.3691	–	1.528 ± 0.019
101 kPa, x1 = 0.3883	–	1.55 ± 0.013
101 kPa, x1 = 0.4941	–	1.534 ± 0.013
101 kPa, x1 = 0.5276	–	1.497 ± 0.019
101 kPa, x1 = 0.5875	–	1.564 ± 0.013
101 kPa, x1 = 0.6718	–	1.506 ± 0.019
101 kPa, x1 = 0.6844	–	1.605 ± 0.014
101 kPa, x1 = 0.803	–	1.636 ± 0.014
101 kPa, x1 = 0.8037	–	1.543 ± 0.019
101 kPa, x1 = 0.9005	–	1.682 ± 0.015
101 kPa, x1 = 0.9297	–	1.672 ± 0.021
101.3 kPa, x1 = 0.0944	2.225 ± 0.1	1.97 ± 0.091
101.3 kPa, x1 = 0.192	2.017 ± 0.093	1.848 ± 0.086
101.3 kPa, x1 = 0.2893	1.88 ± 0.087	1.671 ± 0.078
101.3 kPa, x1 = 0.3876	1.78 ± 0.083	1.604 ± 0.075
101.3 kPa, x1 = 0.4688	1.773 ± 0.082	1.59 ± 0.075
101.3 kPa, x1 = 0.5874	1.77 ± 0.082	1.599 ± 0.075
101.3 kPa, x1 = 0.6887	1.796 ± 0.083	1.625 ± 0.076
101.3 kPa, x1 = 0.7915	1.859 ± 0.086	1.668 ± 0.078
101.3 kPa, x1 = 0.8839	1.905 ± 0.088	1.723 ± 0.08

C1CCCCCCC1 + c1ccccc1
303.15 K, 101 kPa
Settings	viscosity [mPa·s]
x1 = 0.1002	0.5993 ± 0.0042
x1 = 0.2	0.6484 ± 0.0044
x1 = 0.2967	0.7078 ± 0.0047
x1 = 0.3983	0.788 ± 0.0051
x1 = 0.4982	0.8861 ± 0.0056
x1 = 0.6999	1.179 ± 0.0072
x1 = 0.8961	1.654 ± 0.0098

CC1(C)OCC(CO)O1 (stereo not given) + OCCO
viscosity [mPa·s], 101 kPa
Settings	x1 = 0.0997	x1 = 0.2	x1 = 0.3008	x1 = 0.3988	x1 = 0.5014	x1 = 0.6	x1 = 0.7003	x1 = 0.8	x1 = 0.8997
298.15 K	15.54 ± 0.34	14.27 ± 0.31	12.57 ± 0.28	11.4 ± 0.25	10.31 ± 0.23	9.722 ± 0.22	9.762 ± 0.22	9.801 ± 0.22	9.695 ± 0.23
308.15 K	10.5 ± 0.23	9.645 ± 0.21	8.569 ± 0.19	7.712 ± 0.17	6.932 ± 0.16	6.525 ± 0.15	6.516 ± 0.15	6.912 ± 0.16	6.889 ± 0.16
318.15 K	7.537 ± 0.17	6.894 ± 0.15	6.139 ± 0.14	5.409 ± 0.12	4.898 ± 0.11	4.639 ± 0.11	4.882 ± 0.11	5.057 ± 0.12	5.085 ± 0.12

CCCCCCCCn1cc[n+](C)c1.O=[N+]([O-])[O-] + CCCCO
Settings	viscosity [mPa·s]
293.15 K, 101 kPa, x2 = 0.168	378.7 ± 100

CC(C)=CC(=O)C=C(C)C + CCCCCOC(C)=O
298.15 K, 101 kPa
Settings	viscosity [mPa·s]
x1 = 0.078	0.813 ± 0.01
x1 = 0.142	0.834 ± 0.01

CCCCC(=O)OCC + CCCCCO
viscosity [mPa·s], 101.33 kPa
Settings	x1 = 0.1037	x1 = 0.1921	x1 = 0.3001	x1 = 0.4089	x1 = 0.5015	x1 = 0.6062	x1 = 0.7081	x1 = 0.8013	x1 = 0.9029
293.15 K	3.302 ± 0.044	2.761 ± 0.038	2.241 ± 0.033	1.841 ± 0.029	1.575 ± 0.026	1.34 ± 0.024	1.163 ± 0.022	1.036 ± 0.02	0.927 ± 0.019
303.15 K	2.379 ± 0.034	2.008 ± 0.03	1.651 ± 0.027	1.377 ± 0.024	1.195 ± 0.022	1.033 ± 0.02	0.912 ± 0.019	0.825 ± 0.018	0.749 ± 0.018
313.15 K	1.887 ± 0.029	1.61 ± 0.026	1.344 ± 0.024	1.139 ± 0.022	1.004 ± 0.02	0.884 ± 0.019	0.793 ± 0.018	0.728 ± 0.017	0.672 ± 0.017
